Test results: the supplement of paper PMC10307832

What was measured:
Assay in all cases: relative viability (nuclei count vs DMSO), 5 days (fraction); higher = more cells survive
Venetoclax + Alpelisib = compound: CC1(C)CCC(CN2CCN(c3ccc(C(=O)NS(=O)(=O)c4ccc(NCC5CCOCC5)c([N+](=O)[O-])c4)c(Oc4cnc5[nH]ccc5c4)c3)CC2)=C(c2ccc(Cl)cc2)C1 [Venetoclax] + Cc1nc(NC(=O)N2CCC[C@H]2C(N)=O)sc1-c1ccnc(C(C)(C)C(F)(F)F)c1 [Alpelisib] (partner 2 µM)
Method in brief: (§1)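 Five library-drug doses in √10 steps were combined with a fixed anchor-drug dose, or a single drug was given alone, by pin tool to lung cancer cell lines in 1536-well plates the day after seeding. Nuclei were stained and counted after 5 days. Relative viability is the nuclei count in treated wells over that in vehicle wells, taken as the median of duplicate plates.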

[1] = compound: Cn1cnc2c(F)c(Nc3ccc(Br)cc3Cl)c(C(=O)NOCCO)cc21 [Selumetinib] + CC(=O)c1c(C)c2cnc(Nc3ccc(N4CCNCC4)cn3)nc2n(C2CCCC2)c1=O [Palbociclib] (partner 0.5 µM)
Method in brief: as §1

Selumetinib + Bortezomib = compound: Cn1cnc2c(F)c(Nc3ccc(Br)cc3Cl)c(C(=O)NOCCO)cc21 [Selumetinib] + CC(C)C[C@H](NC(=O)[C@H](Cc1ccccc1)NC(=O)c1cnccn1)B(O)O [Bortezomib] (partner 0.002 µM)
Method in brief: as §1

Selumetinib + AZD7762 = compound: Cn1cnc2c(F)c(Nc3ccc(Br)cc3Cl)c(C(=O)NOCCO)cc21 [Selumetinib] + NC(=O)Nc1cc(-c2cccc(F)c2)sc1C(=O)N[C@H]1CCCNC1 [AZD7762] (partner 0.2 µM)
Method in brief: as §1

Work on NCI-H1651 yielded a relative viability (Venetoclax + Alpelisib; first compound 0.01 µM) of 0.973, a relative viability (Venetoclax + Alpelisib; first compound 0.03162 µM) of 0.949 and a relative viability (Venetoclax + Alpelisib; first compound 0.1 µM) of 0.959. For the same cell line, the relative viability (Venetoclax + Alpelisib; first compound 0.3162 µM) was 0.987, the relative viability (Venetoclax + Alpelisib; first compound 1 µM) was 0.905 and the relative viability ([1]; first compound 0.02 µM) was 0.512. It also gave a relative viability ([1]; first compound 0.06325 µM) of 0.501, a relative viability ([1]; first compound 0.2 µM) of 0.475 and a relative viability ([1]; first compound 0.6325 µM) of 0.489. The relative viability (Selumetinib + Bortezomib; first compound 0.02 µM) was 1.08, the relative viability (Selumetinib + Bortezomib; first compound 0.06325 µM) was 0.861 and the relative viability (Selumetinib + Bortezomib; first compound 0.2 µM) was 0.873. The relative viability (Selumetinib + Bortezomib; first compound 0.6325 µM) was 0.818, the relative viability (Selumetinib + AZD7762; first compound 0.02 µM) was 0.44 and the relative viability (Selumetinib + AZD7762; first compound 0.06325 µM) was 0.42. The relative viability (Selumetinib + AZD7762; first compound 0.2 µM) was 0.445 and the relative viability (Selumetinib + AZD7762; first compound 0.6325 µM) was 0.495.
For NCI-H23, the relative viability (Venetoclax + Alpelisib; first compound 0.01 µM) was 0.658, the relative viability (Venetoclax + Alpelisib; first compound 0.03162 µM) was 0.62 and the relative viability (Venetoclax + Alpelisib; first compound 0.1 µM) was 0.64. It also gave a relative viability (Venetoclax + Alpelisib; first compound 0.3162 µM) of 0.644, a relative viability (Venetoclax + Alpelisib; first compound 1 µM) of 0.546 and a relative viability ([1]; first compound 0.02 µM) of 0.494. The relative viability ([1]; first compound 0.06325 µM) was 0.393, the relative viability ([1]; first compound 0.2 µM) was 0.354 and the relative viability ([1]; first compound 0.6325 µM) was 0.314. The relative viability (Selumetinib + Bortezomib; first compound 0.02 µM) was 1.34, the relative viability (Selumetinib + Bortezomib; first compound 0.06325 µM) was 0.967 and the relative viability (Selumetinib + Bortezomib; first compound 0.2 µM) was 0.721. The relative viability (Selumetinib + Bortezomib; first compound 0.6325 µM) was 0.965, the relative viability (Selumetinib + AZD7762; first compound 0.02 µM) was 0.265 and the relative viability (Selumetinib + AZD7762; first compound 0.06325 µM) was 0.315. The relative viability (Selumetinib + AZD7762; first compound 0.2 µM) was 0.222 and the relative viability (Selumetinib + AZD7762; first compound 0.6325 µM) was 0.195.
With NCI-H1355 the relative viability (Venetoclax + Alpelisib; first compound 0.01 µM) was 0.842, the relative viability (Venetoclax + Alpelisib; first compound 0.03162 µM) was 0.782 and the relative viability (Venetoclax + Alpelisib; first compound 0.1 µM) was 0.784. For the same cell line, the relative viability (Venetoclax + Alpelisib; first compound 0.3162 µM) was 0.785, the relative viability (Venetoclax + Alpelisib; first compound 1 µM) was 0.805 and the relative viability ([1]; first compound 0.02 µM) was 0.315. It also gave a relative viability ([1]; first compound 0.06325 µM) of 0.284, a relative viability ([1]; first compound 0.2 µM) of 0.266 and a relative viability ([1]; first compound 0.6325 µM) of 0.241. For the same cell line, the relative viability (Selumetinib + Bortezomib; first compound 0.02 µM) was 1.18, the relative viability (Selumetinib + Bortezomib; first compound 0.06325 µM) was 1.17 and the relative viability (Selumetinib + Bortezomib; first compound 0.2 µM) was 0.884. For the same cell line, the relative viability (Selumetinib + Bortezomib; first compound 0.6325 µM) was 0.822, the relative viability (Selumetinib + AZD7762; first compound 0.02 µM) was 0.818 and the relative viability (Selumetinib + AZD7762; first compound 0.06325 µM) was 0.711. It also gave a relative viability (Selumetinib + AZD7762; first compound 0.2 µM) of 0.748 and a relative viability (Selumetinib + AZD7762; first compound 0.6325 µM) of 0.565.
NCI-H2085 showed a relative viability (Venetoclax + Alpelisib; first compound 0.01 µM) of 0.911, a relative viability (Venetoclax + Alpelisib; first compound 0.03162 µM) of 0.925 and a relative viability (Venetoclax + Alpelisib; first compound 0.1 µM) of 0.884. It also gave a relative viability (Venetoclax + Alpelisib; first compound 0.3162 µM) of 0.928, a relative viability (Venetoclax + Alpelisib; first compound 1 µM) of 0.911 and a relative viability ([1]; first compound 0.02 µM) of 0.464. It also gave a relative viability ([1]; first compound 0.06325 µM) of 0.462, a relative viability ([1]; first compound 0.2 µM) of 0.415 and a relative viability ([1]; first compound 0.6325 µM) of 0.355. It also gave a relative viability (Selumetinib + Bortezomib; first compound 0.02 µM) of 1, a relative viability (Selumetinib + Bortezomib; first compound 0.06325 µM) of 0.947 and a relative viability (Selumetinib + Bortezomib; first compound 0.2 µM) of 0.926. For the same cell line, the relative viability (Selumetinib + Bortezomib; first compound 0.6325 µM) was 0.916, the relative viability (Selumetinib + AZD7762; first compound 0.02 µM) was 0.914 and the relative viability (Selumetinib + AZD7762; first compound 0.06325 µM) was 0.906. It also gave a relative viability (Selumetinib + AZD7762; first compound 0.2 µM) of 0.864 and a relative viability (Selumetinib + AZD7762; first compound 0.6325 µM) of 0.722.
NCI-H322M gave a relative viability (Venetoclax + Alpelisib; first compound 0.01 µM) of 0.918, a relative viability (Venetoclax + Alpelisib; first compound 0.03162 µM) of 0.881 and a relative viability (Venetoclax + Alpelisib; first compound 0.1 µM) of 0.836. For the same cell line, the relative viability (Venetoclax + Alpelisib; first compound 0.3162 µM) was 0.764, the relative viability (Venetoclax + Alpelisib; first compound 1 µM) was 0.752 and the relative viability ([1]; first compound 0.02 µM) was 0.403. The relative viability ([1]; first compound 0.06325 µM) was 0.413, the relative viability ([1]; first compound 0.2 µM) was 0.459 and the relative viability ([1]; first compound 0.6325 µM) was 0.448. For the same cell line, the relative viability (Selumetinib + Bortezomib; first compound 0.02 µM) was 1.05, the relative viability (Selumetinib + Bortezomib; first compound 0.06325 µM) was 1.22 and the relative viability (Selumetinib + Bortezomib; first compound 0.2 µM) was 1.01. For the same cell line, the relative viability (Selumetinib + Bortezomib; first compound 0.6325 µM) was 0.98, the relative viability (Selumetinib + AZD7762; first compound 0.02 µM) was 0.453 and the relative viability (Selumetinib + AZD7762; first compound 0.06325 µM) was 0.443. The relative viability (Selumetinib + AZD7762; first compound 0.2 µM) was 0.45 and the relative viability (Selumetinib + AZD7762; first compound 0.6325 µM) was 0.527.
NCI-H1915 gave a relative viability (Venetoclax + Alpelisib; first compound 0.01 µM) of 1.03, a relative viability (Venetoclax + Alpelisib; first compound 0.03162 µM) of 1.05 and a relative viability (Venetoclax + Alpelisib; first compound 0.1 µM) of 1.02. It also gave a relative viability (Venetoclax + Alpelisib; first compound 0.3162 µM) of 1.01, a relative viability (Venetoclax + Alpelisib; first compound 1 µM) of 1.06 and a relative viability ([1]; first compound 0.02 µM) of 0.491. For the same cell line, the relative viability ([1]; first compound 0.06325 µM) was 0.366, the relative viability ([1]; first compound 0.2 µM) was 0.33 and the relative viability ([1]; first compound 0.6325 µM) was 0.228. For the same cell line, the relative viability (Selumetinib + Bortezomib; first compound 0.02 µM) was 1.07, the relative viability (Selumetinib + Bortezomib; first compound 0.06325 µM) was 0.877 and the relative viability (Selumetinib + Bortezomib; first compound 0.2 µM) was 0.747. The relative viability (Selumetinib + Bortezomib; first compound 0.6325 µM) was 0.617, the relative viability (Selumetinib + AZD7762; first compound 0.02 µM) was 0.81 and the relative viability (Selumetinib + AZD7762; first compound 0.06325 µM) was 0.663. For the same cell line, the relative viability (Selumetinib + AZD7762; first compound 0.2 µM) was 0.646 and the relative viability (Selumetinib + AZD7762; first compound 0.6325 µM) was 0.453.
With HCC-827 the relative viability (Venetoclax + Alpelisib; first compound 0.01 µM) was 0.954, the relative viability (Venetoclax + Alpelisib; first compound 0.03162 µM) was 0.977 and the relative viability (Venetoclax + Alpelisib; first compound 0.1 µM) was 1. For the same cell line, the relative viability (Venetoclax + Alpelisib; first compound 0.3162 µM) was 0.976, the relative viability (Venetoclax + Alpelisib; first compound 1 µM) was 0.994 and the relative viability ([1]; first compound 0.02 µM) was 0.497. For the same cell line, the relative viability ([1]; first compound 0.06325 µM) was 0.469, the relative viability ([1]; first compound 0.2 µM) was 0.465 and the relative viability ([1]; first compound 0.6325 µM) was 0.401. The relative viability (Selumetinib + Bortezomib; first compound 0.02 µM) was 1.22, the relative viability (Selumetinib + Bortezomib; first compound 0.06325 µM) was 1.03 and the relative viability (Selumetinib + Bortezomib; first compound 0.2 µM) was 1.02. For the same cell line, the relative viability (Selumetinib + Bortezomib; first compound 0.6325 µM) was 0.975, the relative viability (Selumetinib + AZD7762; first compound 0.02 µM) was 0.2 and the relative viability (Selumetinib + AZD7762; first compound 0.06325 µM) was 0.195. It also gave a relative viability (Selumetinib + AZD7762; first compound 0.2 µM) of 0.194 and a relative viability (Selumetinib + AZD7762; first compound 0.6325 µM) of 0.209.
LXF-289 was tested, and the relative viability (Venetoclax + Alpelisib; first compound 0.01 µM) was 1.05, the relative viability (Venetoclax + Alpelisib; first compound 0.03162 µM) was 1 and the relative viability (Venetoclax + Alpelisib; first compound 0.1 µM) was 1.04. The relative viability (Venetoclax + Alpelisib; first compound 0.3162 µM) was 1.04, the relative viability (Venetoclax + Alpelisib; first compound 1 µM) was 0.934 and the relative viability ([1]; first compound 0.02 µM) was 0.554. The relative viability ([1]; first compound 0.06325 µM) was 0.529, the relative viability ([1]; first compound 0.2 µM) was 0.468 and the relative viability ([1]; first compound 0.6325 µM) was 0.468. For the same cell line, the relative viability (Selumetinib + Bortezomib; first compound 0.02 µM) was 0.934, the relative viability (Selumetinib + Bortezomib; first compound 0.06325 µM) was 0.891 and the relative viability (Selumetinib + Bortezomib; first compound 0.2 µM) was 0.8. The relative viability (Selumetinib + Bortezomib; first compound 0.6325 µM) was 0.748, the relative viability (Selumetinib + AZD7762; first compound 0.02 µM) was 0.958 and the relative viability (Selumetinib + AZD7762; first compound 0.06325 µM) was 0.887. The relative viability (Selumetinib + AZD7762; first compound 0.2 µM) was 0.829 and the relative viability (Selumetinib + AZD7762; first compound 0.6325 µM) was 0.85.
